In PubChem BioAssay (NCI):
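Method: 48-hour compound exposure of cells in 96-well plates, five concentrations, linear interpolation of endpoints. Abbreviation: GI50, concentration required for 50% inhibition of growth. TGI is the concentration that stops growth completely.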

Experiments:
Assay in all cases: DTP human tumour cell line panel, 48 h
RPMI-8226 leukemia = system: RPMI-8226 leukemia
M14 melanoma = system: M14 melanoma
UACC-62 melanoma = system: UACC-62 melanoma
OVCAR-8 ovarian = system: OVCAR-8 ovarian
DMS 114 small cell lung = system: DMS 114 small cell lung
DMS 273 small cell lung = system: DMS 273 small cell lung
HCT-15 colon = system: HCT-15 colon
SF-539 CNS = system: SF-539 CNS
SK-OV-3 ovarian = system: SK-OV-3 ovarian
A498 renal = system: A498 renal
T-47D breast = system: T-47D breast

Row | SMILES | TGI (RPMI-8226 leukemia) | TGI (M14 melanoma) | TGI (UACC-62 melanoma) | TGI (OVCAR-8 ovarian) | TGI (DMS 114 small cell lung) | TGI (DMS 273 small cell lung) | TGI (HCT-15 colon) | TGI (SF-539 CNS) | TGI (SK-OV-3 ovarian) | TGI (A498 renal) | TGI (T-47D breast) | GI50 (RPMI-8226 leukemia) | GI50 (UACC-62 melanoma) | GI50 (OVCAR-8 ovarian) | GI50 (HCT-15 colon) | GI50 (SF-539 CNS)
1 | Cc1cc(=O)[nH]c(NNC(C#N)c2ccc(N(C)C)cc2)n1 (centres undefined) | > 100 µM | > 100 µM | > 100 µM | > 100 µM | > 100 µM | > 100 µM | > 100 µM | > 100 µM | > 100 µM | – | – | – | – | – | – | –
2 | COCC1N=C(c2cc(OC)c(OC)c(OC)c2-c2cc3c(cc2[C@@H](C)O)OCO3)O[C@H]1c1ccccc1 (some centres undefined) | > 100 µM | – | > 100 µM | > 100 µM | – | > 100 µM | > 100 µM | > 100 µM | > 100 µM | > 100 µM | – | – | – | – | – | –
3 | O=C1c2c(F)c(F)c(F)c(F)c2SC2=Nc3cccc4cccc(c34)N12 | 8.02 µM | 13.1 µM | 11 µM | 17.7 µM | – | – | 14.8 µM | 14 µM | 23.2 µM | 35.2 µM | 4.9 µM | – | – | – | – | –
4 | CC1=C(C(=O)NCCCN(CCO)CCO)CC(C(=O)NCCCN(CCO)CCO)=C(C)N1 | > 100 µM | > 100 µM | > 100 µM | > 100 µM | – | – | > 100 µM | > 100 µM | > 100 µM | > 100 µM | > 100 µM | – | – | – | – | –
5 | CC(=O)Nc1ccc(C(=O)n2[nH]c(C)c(/C=C3\C(=O)C=Cc4ccccc43)c2=O)cc1 | > 100 µM | > 100 µM | – | > 100 µM | > 100 µM | > 100 µM | > 100 µM | > 100 µM | – | – | – | – | – | – | – | –
6 | COc1cc2c(cc1OC)-c1[nH]c3ccc([N+](=O)[O-])cc3c1CC(=O)N2 | 47.8 µM | > 100 µM | > 100 µM | > 100 µM | – | – | > 100 µM | 0.716 µM | > 29.8 µM | 8.31 µM | > 60.5 µM | – | – | – | – | –
7 | COc1cc(/C=C/c2ccc(S(N)(=O)=O)cc2)cc(OC)c1 | 31.5 µM | > 100 µM | 30.3 µM | > 100 µM | – | – | 53.5 µM | 46.2 µM | 75.7 µM | 39.5 µM | 41.6 µM | 14.3 µM | 15.4 µM | 37.9 µM | 17.4 µM | 18.8 µM
8 | Cc1ccc(O)cc1 (tested in a mixture with another compound) | > 100 µM | > 100 µM | > 100 µM | > 100 µM | – | – | > 100 µM | > 100 µM | > 100 µM | > 100 µM | > 100 µM | – | – | – | – | –
9 | COC(=O)CN(CC1O[C@@H]2OC(C)(C)O[C@@H]2C1NC(C)=O)C(=O)OCc1ccccc1 (some centres undefined) | > 100 µM | > 100 µM | > 100 µM | > 100 µM | – | – | > 100 µM | > 100 µM | > 100 µM | > 100 µM | > 100 µM | – | – | – | – | –
10 | Brc1ccc(C[N+]23CN4CN(CN(C4)C2)C3)cc1 | 59.5 µM | 33 µM | 30.5 µM | 99.7 µM | 51.1 µM | 52.9 µM | 69 µM | > 100 µM | > 100 µM | – | – | – | – | – | – | –
11 | CCOC(=O)CCC(C(=O)OCC)n1nnc2ccc(Nc3c(C)[n+]([O-])c4cc(F)c(OCC)cc4[n+]3[O-])cc21 (centres undefined) | 54.3 µM | > 100 µM | 43.1 µM | > 100 µM | – | – | > 100 µM | 64.4 µM | > 100 µM | > 100 µM | > 100 µM | – | – | – | – | –
12 | N#CC(C#N)C1CN2CCC1CC2 (centres undefined) | > 100 µM | > 100 µM | > 100 µM | > 100 µM | – | – | > 100 µM | > 100 µM | > 100 µM | > 100 µM | > 100 µM | – | – | – | – | –
13 | CN(C)CCCN=c1c2ccccc2n(C)c2[nH]c(=O)n(C)c(=O)c12 | > 54.4 µM | 17.1 µM | 24.7 µM | > 100 µM | – | – | > 100 µM | 22.4 µM | 50.3 µM | 38 µM | > 54.7 µM | – | – | – | – | –
14 | O=C1c2ccccc2C(=O)c2c(NCC3CO3)cccc21 (centres undefined) | > 85 µM | 27.6 µM | > 45.9 µM | 24.8 µM | – | – | 32 µM | > 100 µM | > 100 µM | > 100 µM | > 100 µM | – | – | – | – | –
15 | O=C(NCCCc1cn[nH]c(=O)n1)c1cccc2nc3ccccc3nc12 | > 100 µM | > 100 µM | > 100 µM | > 100 µM | – | – | > 100 µM | > 100 µM | > 100 µM | > 100 µM | > 100 µM | – | – | – | – | –
16 | CCOC(=O)[C@@]12NN=N[C@@H]1[C@H]1CO[C@H](c3ccccc3)N1C2=O | 8.71 µM | 33 µM | 21.2 µM | 23.7 µM | – | – | 32.9 µM | 25.3 µM | 33.6 µM | 24.1 µM | 36 µM | – | – | – | – | –
17 | COC(=O)C1=C(C)NC2=C(C(=O)c3ccccc32)C1c1cn[nH]c1-c1ccccc1 (centres undefined) | > 100 µM | > 100 µM | > 100 µM | > 100 µM | – | – | > 100 µM | > 100 µM | > 100 µM | > 100 µM | > 100 µM | – | – | – | – | –
18 | CCOC(=O)c1cc([N+](=O)[O-])cc([N+](=O)[O-])c1Sc1ncnc2nc[nH]c12 | > 21.8 µM | 2.66 µM | 21.3 µM | 4.48 µM | – | – | 19.7 µM | 15.7 µM | 23.3 µM | 25.3 µM | 3.34 µM | – | – | – | – | –
